In PMC11574021, “CEP192 localises mitotic Aurora-A activity by priming its interaction with TPX2” (The EMBO Journal, 2024):

Key:
[1] = system: Aurora-A:TACC3 complexes in RPE1 p53-/- cells; experiment: Proximity ligation assay Aurora-A:TACC3, RPE1 p53-/-; format: cell-based, Homo sapiens; conditions: siRNA 48 h
Description: siRNA depletion was carried out by reverse transfection using oligofectamine (Thermo Scientific, 12252011) and lipofectamine RNAiMax (Thermo Scientific, 13778075), according to the manufacturer’s instructions, for U251 and RPE1 cells, respectively. For immunofluorescence, 1 × 10^5 cells were seeded in six-well plates and simultaneously transfected with 60 pmol siRNA duplex and 3 µl transfection reagent diluted in 200 µl Opti-MEM serum-free medium. Growth medium was added to a final volume of 2 ml. For western blotting, 1 × 10^6 cells were seeded in 10 cm dishes and transfected with 300 pmol siRNA duplex and 15 µl transfection reagent diluted in 1000 µl Opti-MEM. Growth medium was added to a final volume of 10 ml. Cells were incubated with siRNA for 48 h prior to fixation or harvesting. As a negative control (siControl) Silencer select negative control No.1 siRNA was transfected as above. For TACC3 depletion, where two siRNA duplexes were used, 40 pmol of each was transfected per well.
Cells were seeded and fixed as above, then a proximity ligation assay (PLA) was carried out according to the manufacturer’s instructions with the supplied buffers (Navinci, NaveniFlex Cell MR Red, NC.MR.100 Red). All incubations are for 1 h at 37 °C, unless otherwise stated. […]

[2] = system: NuMA in RPE1 p53-/- cells; experiment: Immunofluorescence, NuMA spindle pole signal intensity, RPE1 p53-/-; format: cell-based, Homo sapiens; conditions: Aurora-A inhibitor 30 min (500 nM), compared with RΔ11
Description: As noted in the figures, the following drugs were incubated with cells for 30 min at 37 °C: Aurora-B-i ZM447439 2 µM [10 mM], PLK1-I BI2536 1 µM [10 mM] and Aurora-A-i MLN8237 [5 mM] was used at 250 and 500 nM in U251 and RPE1 cells, respectively. Drugs were resuspended in DMSO to the stock concentrations indicated in square brackets. BI2536 (HY-50698), MLN8237 (HY-10971) and ZM447439 (HY-10128) were all purchased from MedChemExpress. For western blotting, a 20-min pre-treatment with proteasome inhibitor (20 µM MG-132, MerckMillipore, 47490 [20 mM]) was required prior to the addition of DMSO control or kinase inhibitors. This prevented mitotic exit as a consequence of checkpoint override following Aurora-A and Aurora-B inhibitor addition.
For siRNA depletion, 1 × 10^5 cells were seeded in six-well plates and transfected as described above for 48 h prior to fixation. For all other experiments, 2.5 × 10^5 cells were seeded in six-well plates and grown for 24 h before fixation. All cells were grown on 12 mm diameter glass coverslips (VWR, 631–1577). […]
For CEP192, LATS2-pS83, PCNT, PLK1 and γ-tubulin intensity, a 20-pixel diameter circle was centred over each centrosome and the intensity measured. […]

| Compound | PLA foci formation between TACC3 and Aurora-A antibodies [1] | NuMA levels at spindle poles [2] |
| --- | --- | --- |
| 5′-CGGUAGUGAUAAAAGCUCAtt-3′ [siTPX2] | fully prevented both spindle recruitment of TACC3 and PLA foci formation | – |
| COc1cc(Nc2ncc3c(n2)-c2ccc(Cl)cc2C(c2c(F)cccc2OC)=NC3)ccc1C(=O)O [Alisertib] | – | equally high in R∆11 and Aurora-A inhibitor-treated cells |
